Source: ChEMBL document CHEMBL2390846, “Small-molecule pyrimidine inhibitors of the cdc2-like (Clk) and dual specificity tyrosine phosphorylation-regulated (Dyrk) kinases: development of chemical probe ML315” (Bioorg Med Chem Lett, 2013)

How the values were obtained:
[1] = biological target: T1, Dual specificity protein kinase CLK4 (Homo sapiens, UniProt Q9HAZ1); test: Inhibition of CLK4 (unknown origin) by bioluminescence assay
[2] = biological target: T2, Dual specificity tyrosine-phosphorylation-regulated kinase 1A (Homo sapiens, UniProt Q13627); test: Inhibition of DYRK1A (unknown origin) by bioluminescence assay
[3] = biological target: Dual specificity protein kinase CLK1 (Homo sapiens, UniProt P49759)
[4] = biological target: Dual specificity protein kinase CLK2 (Homo sapiens, UniProt P49760)
[5] = biological target: Dual specificity tyrosine-phosphorylation-regulated kinase 1B (Homo sapiens, UniProt Q9Y463)
[6] = biological target: T2, Dual specificity tyrosine-phosphorylation-regulated kinase 1A
[7] = biological target: T1, Dual specificity protein kinase CLK4

Chain of Dual specificity protein kinase CLK1 (P49759 whole entry): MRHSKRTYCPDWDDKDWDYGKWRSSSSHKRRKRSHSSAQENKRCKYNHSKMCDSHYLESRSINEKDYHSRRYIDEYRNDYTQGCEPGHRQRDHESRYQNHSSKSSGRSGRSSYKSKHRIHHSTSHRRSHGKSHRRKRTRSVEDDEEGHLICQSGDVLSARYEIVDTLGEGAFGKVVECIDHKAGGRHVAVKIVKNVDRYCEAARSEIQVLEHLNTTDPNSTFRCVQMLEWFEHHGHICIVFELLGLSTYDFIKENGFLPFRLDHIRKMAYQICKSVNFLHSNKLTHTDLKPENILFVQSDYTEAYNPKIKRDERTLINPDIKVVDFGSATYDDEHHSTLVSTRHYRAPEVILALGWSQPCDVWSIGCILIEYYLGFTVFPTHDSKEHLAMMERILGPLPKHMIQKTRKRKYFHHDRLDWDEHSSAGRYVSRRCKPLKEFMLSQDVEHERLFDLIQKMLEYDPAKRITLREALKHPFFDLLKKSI
Chain of Dual specificity tyrosine-phosphorylation-regulated kinase 1B (Q9Y463 whole entry): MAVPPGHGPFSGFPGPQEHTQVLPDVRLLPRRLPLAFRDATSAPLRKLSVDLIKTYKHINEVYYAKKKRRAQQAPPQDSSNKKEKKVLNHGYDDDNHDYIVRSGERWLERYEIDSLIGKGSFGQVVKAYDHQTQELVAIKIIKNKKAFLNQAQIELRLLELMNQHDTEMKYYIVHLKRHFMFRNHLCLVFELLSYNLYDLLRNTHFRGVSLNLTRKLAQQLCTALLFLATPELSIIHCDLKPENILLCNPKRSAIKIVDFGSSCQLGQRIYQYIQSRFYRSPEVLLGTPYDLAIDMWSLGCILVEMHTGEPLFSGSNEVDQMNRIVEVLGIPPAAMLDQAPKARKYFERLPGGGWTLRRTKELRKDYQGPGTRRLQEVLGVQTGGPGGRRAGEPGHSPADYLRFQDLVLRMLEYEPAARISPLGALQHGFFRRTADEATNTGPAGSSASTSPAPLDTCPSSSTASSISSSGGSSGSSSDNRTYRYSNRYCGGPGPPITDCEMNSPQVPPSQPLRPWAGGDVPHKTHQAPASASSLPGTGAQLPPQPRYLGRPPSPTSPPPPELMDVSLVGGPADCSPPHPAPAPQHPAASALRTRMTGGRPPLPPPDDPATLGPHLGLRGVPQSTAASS
Chain of Dual specificity protein kinase CLK2 (P49760 whole entry): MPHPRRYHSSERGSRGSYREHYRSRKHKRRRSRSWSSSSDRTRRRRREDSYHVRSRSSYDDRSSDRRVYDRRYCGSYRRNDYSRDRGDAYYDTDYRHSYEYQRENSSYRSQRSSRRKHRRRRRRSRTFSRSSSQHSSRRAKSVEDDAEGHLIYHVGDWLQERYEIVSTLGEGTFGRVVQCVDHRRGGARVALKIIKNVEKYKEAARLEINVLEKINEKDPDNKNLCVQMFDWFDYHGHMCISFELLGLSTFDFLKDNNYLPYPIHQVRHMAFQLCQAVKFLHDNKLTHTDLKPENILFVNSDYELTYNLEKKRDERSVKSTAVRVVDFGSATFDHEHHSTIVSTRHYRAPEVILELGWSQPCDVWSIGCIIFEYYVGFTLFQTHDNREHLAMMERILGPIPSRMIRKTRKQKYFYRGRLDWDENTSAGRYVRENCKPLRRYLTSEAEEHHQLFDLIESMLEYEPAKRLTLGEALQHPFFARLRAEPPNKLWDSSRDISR
T1 sequence (Q9HAZ1 whole entry): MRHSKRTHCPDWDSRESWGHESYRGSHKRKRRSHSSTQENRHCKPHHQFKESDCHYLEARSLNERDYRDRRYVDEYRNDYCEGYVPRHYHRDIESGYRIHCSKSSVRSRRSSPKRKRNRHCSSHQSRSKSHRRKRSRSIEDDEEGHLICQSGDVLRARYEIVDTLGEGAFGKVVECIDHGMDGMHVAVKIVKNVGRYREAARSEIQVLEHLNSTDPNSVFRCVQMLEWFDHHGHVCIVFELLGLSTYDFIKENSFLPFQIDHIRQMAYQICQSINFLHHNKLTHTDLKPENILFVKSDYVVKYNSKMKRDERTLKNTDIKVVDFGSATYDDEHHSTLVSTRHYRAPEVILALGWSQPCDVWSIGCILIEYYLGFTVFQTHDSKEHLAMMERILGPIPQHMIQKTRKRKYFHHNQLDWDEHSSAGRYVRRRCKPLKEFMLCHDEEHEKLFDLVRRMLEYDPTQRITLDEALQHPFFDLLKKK

SMILES	IC50 ([1]; read-out: IC50) [µM]	IC50 [2]	also measured
c1cncc(CNc2nccc(-c3ccc4cn[nH]c4c3)n2)c1	0.04	–	IC50 ([2]; read-out: IC50): 0.21 µM
c1ccc(CNc2ccnc(-c3ccc4c(c3)OCO4)n2)cc1	23.2	–	IC50 ([2]; read-out: IC50): 26 µM
c1cc(-c2ccc3c(c2)OCO3)nc(Nc2ccc3c(c2)OCO3)n1	0.12	–	IC50 [3]: 0.18 µM; IC50 [4]: 0.259 µM; IC50 [5]: 0.042 µM; IC50 [6]: 0.025 µM; IC50 ([2]; read-out: IC50): 0.13 µM; IC50 [7]: 0.075 µM
COc1cccc(-c2nccc(NCc3ccc(C)cc3)n2)c1	41.2	–	–
COc1cccc(-c2nccc(NCc3ccc(Cl)c(Cl)c3)n2)c1	14.6	Not Active	–
COc1ccc(-c2ccnc(NCc3ccc(Cl)c(Cl)c3)n2)cc1OC	26	–	IC50 [3]: > 10 µM; IC50 ([2]; read-out: IC50): 26 µM; IC50 [7]: > 10 µM
COc1ccc(-c2ccnc(NCc3ccc(Cl)c(Cl)c3)n2)cc1	0.21	–	IC50 [3]: 0.076 µM; IC50 [4]: 0.409 µM; IC50 [5]: 0.411 µM; IC50 [6]: 0.203 µM; IC50 ([2]; read-out: IC50): 1.16 µM; IC50 [7]: 0.092 µM
Clc1cc(Cl)cc(CNc2ccnc(-c3ccc4c(c3)OCO4)n2)c1	4.1	Not Active	–
Clc1ccc(CNc2ncncc2-c2ccc3c(c2)OCO3)cc1Cl	0.58	–	IC50 [3]: 0.626 µM; IC50 [4]: 1.56 µM; IC50 [5]: > 10 µM; IC50 [6]: 3.45 µM; IC50 ([2]; read-out: IC50): 4.12 µM; IC50 [7]: 0.526 µM
Fc1ccc(CNc2ccnc(-c3ccc4c(c3)OCO4)n2)cc1Cl	5.2	–	–
Clc1cc(Cl)cc(CNc2cc(-c3ccc4c(c3)OCO4)ncn2)c1	1.64	–	–
Clc1cncc(CNc2ccnc(-c3ccc4c(c3)OCO4)n2)c1	18.4	–	–
Cc1ccc(CNc2ccnc(-c3ccc4c(c3)OCO4)n2)cc1	23.2	Not Active	–
Fc1cncc(CNc2ccnc(-c3ccc4c(c3)OCO4)n2)c1	8.2	–	–
Fc1cc(CNc2ccnc(-c3ccc4c(c3)OCO4)n2)cc(F)c1F	8.2	–	–
COc1cccc(-c2nccc(NCc3ccccc3)n2)c1	15.8	–	–
c1cnc(-c2ccc3c(c2)OCO3)nc1	–	Not Active	IC50 [1]: Not Active
Brc1cc(Br)cc(CNc2ccnc(-c3ccc4c(c3)OCO4)n2)c1	9.2	Not Active	–
COc1ccc(-c2nccc(NCc3ccc(C)cc3)n2)cc1	–	Not Active	IC50 [1]: Not Active
Fc1ccc(CNc2ccnc(-c3ccc4c(c3)OCO4)n2)cc1F	10.4	–	–
Brc1cncc(CNc2ccnc(-c3ccc4c(c3)OCO4)n2)c1	8.2	–	–
COc1ccc(CNc2ccnc(-c3cccc(C#N)c3)n2)cc1	9.2	–	–
Fc1ccc(CNc2ccnc(-c3ccc4c(c3)OCO4)n2)cc1Br	13	–	–

SMILES	IC50 ([1]; read-out: IC50) [µM]	IC50 [2]	also measured
COc1ccc(-c2nccc(NCc3ccc(Cl)c(Cl)c3)n2)cc1	14.6	Not Active	–
COc1ccc(CNc2ccnc(-c3c(C)noc3C)n2)cc1	–	Not Active	IC50 [1]: Not Active
Cc1ccc(CNc2ccnc(-c3c(C)noc3C)n2)cc1	–	Not Active	IC50 [1]: Not Active
N#Cc1cccc(-c2ncccn2)c1	26	Not Active	–
Cc1noc(C)c1-c1nccc(NCc2ccc(Cl)c(Cl)c2)n1	–	Not Active	IC50 [1]: Not Active
c1cncc(CNc2cc(-c3ccc4c(c3)OCO4)ncn2)c1	6.54	–	IC50 ([2]; read-out: IC50): 16.4 µM
CN(C)c1ccc(-c2nccc(NCc3ccc(Cl)c(Cl)c3)n2)cc1	–	Not Active	IC50 [1]: Not Active
Cc1ccc(CNc2ccnc(-c3cccnc3)n2)cc1	26	Not Active	–
Clc1ccc(CNc2ccnc(-c3ccc4c(c3)OCO4)n2)cc1Cl	26	Not Active	–
c1ccc(CNc2ccnc(-c3cccnc3)n2)cc1	31.6	–	–
Clc1ccc(CNc2ccnc(-c3cccnc3)n2)cc1	16.4	–	–
COc1ccc(-c2nccc(NCc3ccc(Cl)cc3)n2)cc1	13	Not Active	–
CN(C)c1ccc(-c2ncccn2)cc1	–	Not Active	IC50 [1]: Not Active
c1cncc(-c2cc(-n3ccnc3)ncn2)c1	0.79	–	–
Clc1ccc(CNc2ccnc(-c3ccc4c(c3)OCO4)n2)cc1	41.2	Not Active	–
Cc1ccc(CNc2ccnc(-c3ccc4c(c3)OCO4)n2)cn1	32.8	–	–
Cc1ccc(CNc2ccnc(-c3cccc(C#N)c3)n2)cc1	23.2	–	–
Clc1ccc(CNc2nccc(-c3ccc4c(c3)OCO4)n2)cc1	0.05	–	–
COc1ccc(CNc2ccnc(-c3ccc4c(c3)OCO4)n2)cc1	–	–	IC50 [1]: Not Active
CN(C)c1ccc(-c2nccc(NCc3ccccc3)n2)cc1	–	Not Active	IC50 [1]: Not Active
c1cncc(CNc2ccnc(-c3ccc4c(c3)OCO4)n2)c1	0.063	–	–
Clc1ccc(CNc2cc(-c3ccc4c(c3)OCO4)ncn2)cc1	2.32	–	–
Fc1cc(CNc2ccnc(-c3ccc4c(c3)OCO4)n2)ccc1Cl	13	–	–

SMILES	IC50 ([1]; read-out: IC50) [µM]	IC50 [2]	also measured
Cc1ccc(CNc2ccnc(-c3ccc(N(C)C)cc3)n2)cc1	–	Not Active	IC50 [1]: Not Active
COc1ccc(CNc2ccnc(-c3ccc(OC)cc3)n2)cc1	36.8	Not Active	–
COc1ccc(-c2ncccn2)cc1	29.2	Not Active	–
Cc1noc(C)c1-c1ncccn1	–	Not Active	IC50 [1]: Not Active
c1ccc2ncc(CNc3ccnc(-c4ccc5c(c4)OCO5)n3)cc2c1	41.2	–	–
c1cc(CNc2ccnc(-c3ccc4c(c3)OCO4)n2)ccn1	23.2	–	–
c1cncc(CNc2ncncc2-c2ccc3c(c2)OCO3)c1	–	–	IC50 [3]: 4.8 µM; IC50 [4]: > 10 µM; IC50 [5]: > 10 µM; IC50 [6]: > 10 µM; IC50 ([2]; read-out: IC50): 26 µM
Clc1ccc(CNc2ccnc(-c3cccnc3)n2)cc1Cl	13	–	–
Cc1noc(C)c1-c1nccc(NCc2ccc(Cl)cc2)n1	–	Not Active	IC50 [1]: Not Active
COc1cccc(-c2ncccn2)c1	16.4	–	–
Clc1ccc(CNc2cc(-c3ccc4c(c3)OCO4)ncn2)cc1Cl	4.63	–	–
Brc1ccc(CNc2ccnc(-c3ccc4c(c3)OCO4)n2)cc1Br	9.2	Not Active	–
COc1ccc(-c2nccc(NCc3ccccc3)n2)cc1	29.2	Not Active	–
COc1ccc(CNc2ccnc(-c3ccc(N(C)C)cc3)n2)cc1	–	Not Active	IC50 [1]: Not Active
c1ccc(CNc2ccnc(-c3ccc4c(c3)OCO4)n2)nc1	9.2	–	–
Clc1ccc(CNc2ccnc(-c3ccc4[nH]ncc4c3)n2)cc1Cl	–	–	IC50 [3]: 1.78 µM; IC50 [5]: 0.514 µM; IC50 [6]: 2.35 µM; IC50 ([2]; read-out: IC50): 4.63 µM
COc1ccccc1CNc1ncncc1-c1ccc2c(c1)OCO2	2.2	–	–
COc1cccc(-c2nccc(NCc3ccc(Cl)cc3)n2)c1	13	–	–
COc1ccc(CNc2ccnc(-c3cccc(OC)c3)n2)cc1	23.2	–	–
CN(C)c1ccc(-c2nccc(NCc3ccc(Cl)cc3)n2)cc1	–	Not Active	IC50 [1]: Not Active
Fc1cc(F)cc(CNc2ccnc(-c3ccc4c(c3)OCO4)n2)c1	5.2	–	–
N#Cc1cccc(-c2nccc(NCc3ccccc3)n2)c1	14.1	–	–
Clc1ccc(CNc2ccnc(-c3ccc4c(c3)OCO4)n2)cn1	29.2	–	IC50 ([2]; read-out: IC50): 29.2 µM
